Among the data in ChEMBL document CHEMBL4428125, “8-Substituted 1,3-dimethyltetrahydropyrazino[2,1-f]purinediones: Water-soluble adenosine receptor antagonists and monoamine oxidase B inhibitors” (Bioorg Med Chem, 2016) are Ki, inhibition and IC50 values, retold here.

The target of one assay is T1, Adenosine receptor A2b (Homo sapiens, UniProt P29275).
T1 sequence (P29275 whole entry): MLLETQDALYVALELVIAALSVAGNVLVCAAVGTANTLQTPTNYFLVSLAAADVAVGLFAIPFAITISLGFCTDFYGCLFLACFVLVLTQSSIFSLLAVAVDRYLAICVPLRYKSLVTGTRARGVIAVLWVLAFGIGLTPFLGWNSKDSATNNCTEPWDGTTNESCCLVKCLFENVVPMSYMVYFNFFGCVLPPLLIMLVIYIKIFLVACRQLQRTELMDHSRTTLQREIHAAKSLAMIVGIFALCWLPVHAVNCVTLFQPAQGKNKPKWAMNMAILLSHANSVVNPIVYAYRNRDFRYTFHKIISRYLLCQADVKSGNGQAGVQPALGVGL
Description: Displacement of [3H]PSB-603 from human A2B receptor expressed in CHO cell membrane. In kind it is cell membranes. On the technique in general: In a radioligand displacement assay an active substance lowers the binding of a labelled ligand.

In assay [1] the target is T2, Amine oxidase [flavin-containing] A (Homo sapiens, UniProt P21397).
T2 sequence (P21397 whole entry): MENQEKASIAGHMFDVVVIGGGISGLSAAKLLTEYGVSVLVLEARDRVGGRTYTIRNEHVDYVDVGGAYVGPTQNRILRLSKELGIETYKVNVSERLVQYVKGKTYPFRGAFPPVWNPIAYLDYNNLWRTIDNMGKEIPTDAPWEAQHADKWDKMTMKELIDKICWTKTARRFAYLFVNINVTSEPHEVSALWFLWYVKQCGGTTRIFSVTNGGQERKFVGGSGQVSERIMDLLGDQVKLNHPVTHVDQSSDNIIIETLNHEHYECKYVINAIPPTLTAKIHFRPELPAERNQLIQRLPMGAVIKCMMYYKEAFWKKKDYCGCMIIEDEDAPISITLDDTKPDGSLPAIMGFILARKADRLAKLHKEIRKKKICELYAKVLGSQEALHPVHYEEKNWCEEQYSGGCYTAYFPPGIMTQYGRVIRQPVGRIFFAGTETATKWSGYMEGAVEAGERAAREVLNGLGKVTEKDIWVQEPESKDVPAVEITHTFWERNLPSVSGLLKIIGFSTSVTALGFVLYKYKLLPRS
The assay is described as follows: Inhibition of recombinant human MAO-A expressed in baculovirus infected BTI insect cells at 10 uM preincubated for 30 mins followed by addition of p-tyramine as substrate measured over 45 mins by Amplex Red MAO assay relative to control. Conditions: 0.75 h.

The target of assay [2] is T3, Amine oxidase [flavin-containing] B (Rattus norvegicus, UniProt P19643).
T3 sequence (P19643 whole entry): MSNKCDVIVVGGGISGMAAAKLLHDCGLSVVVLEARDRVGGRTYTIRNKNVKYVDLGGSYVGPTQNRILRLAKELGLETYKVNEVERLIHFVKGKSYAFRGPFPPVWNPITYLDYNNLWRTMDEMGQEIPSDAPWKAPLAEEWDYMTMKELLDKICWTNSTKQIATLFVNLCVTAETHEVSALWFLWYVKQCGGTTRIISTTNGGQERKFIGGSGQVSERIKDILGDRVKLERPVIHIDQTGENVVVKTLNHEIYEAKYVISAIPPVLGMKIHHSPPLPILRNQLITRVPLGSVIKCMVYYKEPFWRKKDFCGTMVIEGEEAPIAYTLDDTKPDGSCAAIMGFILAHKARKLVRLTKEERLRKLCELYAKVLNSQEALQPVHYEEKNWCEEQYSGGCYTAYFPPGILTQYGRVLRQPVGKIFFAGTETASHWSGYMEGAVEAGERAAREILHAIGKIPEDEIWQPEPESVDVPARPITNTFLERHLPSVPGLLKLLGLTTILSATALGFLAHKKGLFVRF
Description: Inhibition of recombinant rat MAO-B preincubated for 30 mins followed by addition of p-tyramine as substrate measured over 45 mins by Amplex Red MAO assay.

Assay [3] deals with Adenosine receptor A2a (Rattus norvegicus, UniProt P30543). The assay is described as follows: Displacement of [3H]MSX from A2A receptor in rat brain striatum membranes measured after 30 mins by liquid scintillation counting method. In kind it is cell membranes.
For assay [4], the target named is Adenosine receptor A2a (Homo sapiens, UniProt P29274). Description: Displacement of [3H]MSX from human A2A receptor measured after 30 mins by liquid scintillation counting method.
The target in the next assay is T4, Adenosine receptor A1 (Homo sapiens, UniProt P30542).
T4 sequence (P30542 whole entry): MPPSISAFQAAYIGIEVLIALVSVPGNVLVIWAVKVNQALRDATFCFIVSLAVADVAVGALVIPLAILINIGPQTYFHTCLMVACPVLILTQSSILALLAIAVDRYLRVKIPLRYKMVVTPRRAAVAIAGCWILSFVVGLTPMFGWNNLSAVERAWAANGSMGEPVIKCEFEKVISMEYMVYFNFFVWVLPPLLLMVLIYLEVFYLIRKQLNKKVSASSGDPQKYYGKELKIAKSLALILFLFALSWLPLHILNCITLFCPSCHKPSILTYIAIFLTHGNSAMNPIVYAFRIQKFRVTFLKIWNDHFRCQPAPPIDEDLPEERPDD
Description: Displacement of [3H]CCPA from human A1 receptor expressed in CHO cell membrane by liquid scintillation counting method. The format is cell membranes.

In assay [5] the target is T5, Amine oxidase [flavin-containing] B (Homo sapiens, UniProt P27338).
T5 sequence (P27338 whole entry): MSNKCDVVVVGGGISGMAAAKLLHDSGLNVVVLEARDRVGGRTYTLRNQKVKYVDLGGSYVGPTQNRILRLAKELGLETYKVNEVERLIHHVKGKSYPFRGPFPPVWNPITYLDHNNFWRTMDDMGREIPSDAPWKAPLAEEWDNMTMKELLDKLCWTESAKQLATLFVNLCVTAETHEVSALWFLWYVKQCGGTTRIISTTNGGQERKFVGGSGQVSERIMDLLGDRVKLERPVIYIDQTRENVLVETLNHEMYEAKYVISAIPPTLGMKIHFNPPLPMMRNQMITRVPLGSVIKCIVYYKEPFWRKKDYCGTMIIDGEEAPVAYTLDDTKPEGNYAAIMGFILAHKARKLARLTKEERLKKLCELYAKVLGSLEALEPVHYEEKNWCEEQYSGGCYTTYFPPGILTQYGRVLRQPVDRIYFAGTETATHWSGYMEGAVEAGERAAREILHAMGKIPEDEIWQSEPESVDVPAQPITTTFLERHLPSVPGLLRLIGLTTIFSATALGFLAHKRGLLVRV
The assay is described as follows: Inhibition of recombinant human MAO-B expressed in baculovirus infected BTI insect cells preincubated for 30 mins followed by addition of p-tyramine as substrate measured over 45 mins by Amplex Red MAO assay.

Adenosine receptor A2a (Rattus norvegicus, UniProt P30543), sequence (P30543 whole entry): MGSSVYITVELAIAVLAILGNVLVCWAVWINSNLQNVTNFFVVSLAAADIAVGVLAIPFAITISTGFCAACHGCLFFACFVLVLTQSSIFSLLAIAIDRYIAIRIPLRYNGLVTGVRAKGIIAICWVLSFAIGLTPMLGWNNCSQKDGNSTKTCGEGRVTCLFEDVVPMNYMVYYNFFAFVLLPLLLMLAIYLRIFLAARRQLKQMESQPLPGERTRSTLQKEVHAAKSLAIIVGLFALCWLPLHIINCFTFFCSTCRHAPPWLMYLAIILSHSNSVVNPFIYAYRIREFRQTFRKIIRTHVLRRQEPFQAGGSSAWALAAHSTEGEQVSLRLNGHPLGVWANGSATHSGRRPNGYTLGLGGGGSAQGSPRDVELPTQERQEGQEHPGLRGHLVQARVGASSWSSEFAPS
Adenosine receptor A2a (Homo sapiens, UniProt P29274), sequence (P29274 whole entry): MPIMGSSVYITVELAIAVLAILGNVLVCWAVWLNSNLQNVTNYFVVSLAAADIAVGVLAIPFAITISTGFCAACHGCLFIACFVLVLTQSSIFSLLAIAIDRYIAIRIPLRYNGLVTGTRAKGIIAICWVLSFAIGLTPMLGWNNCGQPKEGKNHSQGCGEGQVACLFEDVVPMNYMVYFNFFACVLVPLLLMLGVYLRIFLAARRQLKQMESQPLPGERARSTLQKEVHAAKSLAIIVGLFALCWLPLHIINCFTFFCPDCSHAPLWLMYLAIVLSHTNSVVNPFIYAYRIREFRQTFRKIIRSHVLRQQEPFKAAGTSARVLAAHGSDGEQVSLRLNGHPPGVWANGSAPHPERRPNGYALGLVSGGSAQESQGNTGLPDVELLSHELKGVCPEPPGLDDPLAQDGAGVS

The term Ki denotes a dissociation constant, usually derived from enzyme kinetics or from competition with a known ligand. Lower therefore signals a stronger hold on the target. A word on the inhibition: it is the relative decrease from the control value, in per cent. For orientation: IC50 means the midpoint of a concentration-inhibition curve. Turning to `Cn1c(=O)c2c(nc3n2CCN([C@@H]2CCCc4ccccc42)C3)n(C)c1=O`, the Ki is over 300 nM at Adenosine receptor A2b, 510 nM at Adenosine receptor A2a [3], 595 nM at Adenosine receptor A2a [4] and 393 nM at Adenosine receptor A1. In addition, the inhibition at 10 µM in assay [1] was found to be 14%. The half-maximal inhibitory concentration (IC50) in assay [2] was found to be 100 nM; in assay [5], 210 nM.

As for `Cn1c(=O)c2c(nc3n2CCN(c2cccc(Cl)c2)C3)n(C)c1=O`, the Ki on Adenosine receptor A2b is over 1000 nM; at Adenosine receptor A2a [3], 557 nM; at Adenosine receptor A2a [4] it was 8860 nM; on Adenosine receptor A1, at least 10000 nM. Besides, the inhibition at 10 µM in assay [1] stood at 4%. In addition, the half-inhibitory concentration (IC50) is 251 nM in assay [2] and 385 nM in assay [5].
